According to US6461593B1, “Therapy with coenzyme Q10 to reduce subgingival microorganisms in patients with periodontal disease” (Biomedical and Clinical Research, priority 1992, dated 2002):
Values joined by “and” are separate entries in the source; they are usually repeats but may differ in a detail not shown here. Equal entries are not always repeated. “Also recorded” adds a separate entry of the source.

How the values were obtained:
[1] = oral administration (ref 14); cited from earlier work
Plasmodium berghei = settings: mice infected with Plasmodium berghei; cited from earlier work
spirochetes = assay: Phase contrast microscopy of subgingival plaque: spirochetes; format: in vivo, human
Description: (§1) Twenty-two systemically healthy patients with periodontal disease, 11 males and 11 females, ages 33 to 66, participated in this trial. These volunteers were treated orally with 100 mg of CoQ10 per day for two months. Informed consent forms were signed prior to the study. Periodontal examinations and peripheral blood analyses were made before and during the trial. During the trial, the patients were not provided any routine periodontal treatment, and the staff gave them no information about oral hygiene to the patients.
(§2) The gingival index (8) and plaque index (9) were criteria to assess to degrees of gingival inflammation and accumulation of plaque on the teeth, respectively. The periodontal pocket depth was measured in interdental regions of buccal gingiva. The deepest pocket which was measured before administration of CoQ10 was selected for direct examination of oral bacteria by a microscope. The subgingival plaques were obtained with a curette, and were then dispersed in physiological saline which contained 1% gelatin, and were then prepared for analysis by phase contrast microscopy. The biopsies were viewed by means of a DS/300 microscope system (Dental Scientific Systems, Inc., VA) at 400× magnification. […]

[2] = Plaque index in patients with periodontal disease, oral CoQ10 trial; format: in vivo, human; set-up: Plaque Index, 2 Months: scale not given here
Description: as §1
(§3) The gingival index (8) and plaque index (9) were criteria to assess to degrees of gingival inflammation and accumulation of plaque on the teeth, respectively. The periodontal pocket depth was measured in interdental regions of buccal gingiva. The deepest pocket which was measured before administration of CoQ10 was selected for direct examination of oral bacteria by a microscope. The subgingival plaques were obtained with a curette, and were then dispersed in physiological saline which contained 1% gelatin, and were then prepared for analysis by phase contrast microscopy. The biopsies were viewed by means of a DS/300 microscope system (Dental Scientific Systems, Inc., VA) at 400× magnification. Small spirochetes, large spirochetes, spinning rods, spiral rods, small gliding rods, large gliding rods and palisading rods were identified as based upon cellular morphology and active motility. The following scores were used in each category: 0, no bacterial cells; 1, 1-9 cells; 2, 10-39 cells; and 3, more than 40 cells.
(§4) A paired-t test was used for the statistical analysis of differences in the gingival index, the plaque index, the blood CoQ10 levels, and the T4/TS ratios before and after the administration. The Wilcoxson test was used to test scores in microscopic analysis.

[3] = Gingival index in patients with periodontal disease, oral CoQ10 trial; format: in vivo, human; set-up: Gingival Index, 2 Months: scale not given here
Description: as §1, §3, §4

T4/T8 lymphocytes = assay: T4/T8 lymphocyte ratio in peripheral blood by flow cytometry; format: in vivo, human
Description: as §1
(§5) About 3 ml of peripheral blood was drawn for determination of CoQ10 levels and the T4/T8 ratios. The determination of the COQ10 level was performed as described by Ye et al. (10). T4(CD4) and T8 (CD8) monoclonal antibodies were purchased from Coulter Immunology, Hialeah, Fla. The lymphocytes were stained according to the two-color fluorescence, and the flow cytometric analysis was performed on an Epics Profile cell sorter (Coulter Electronics Inc., Hileah, Fla.).The sample preparations and staining procedures were performed as described by Parker et al. (11).
as §4

[4] = patients with AIDS and the AIDS-related complex; cited from earlier work
[5] = Periodontal pocket depth in patients with periodontal disease, oral CoQ10 trial; format: in vivo, human
Description: as §1, §3

[6] = tested on: subgingival microorganisms; assay: Phase contrast microscopy of subgingival plaque: total motile microorganisms; format: in vivo, human; set-up: key to Total subgingival microorganism score, 2 Months: 0 = no cells, 1 = 1-9, 2 = 10-39, 3 = >40 cells per category
Description: as §1, §2

[7] = oral administration (ref 5); cited from earlier work
Blood CoQ10 level = format: in vivo, human
Description: as §1, §5, §4

[8] = tested on: tumors induced by dibenzpyrene; settings: cited from earlier work
motile rods = assay: Phase contrast microscopy of subgingival plaque: motile rods; format: in vivo, human
Description: as §1, §2

[9] = cited from earlier work
[10] = individual patients, sum of category scores (0 no motile cells, 1 1-9, 2 10-39, 3 more than 40 cells per microscopic field), 100 mg/day orally
[11] = individual patients (one line per ID #), 100 mg CoQ10 per day orally for 2 months
[12] = 22 patients, 100 mg orally for two months, p<0.01
[13] = 22 patients, 100 mg orally for two months, p<0.001
[14] = individual patients, peripheral blood, 100 mg CoQ10 per day orally

Compound: COC1=C(OC)C(=O)C(C/C=C(\C)CC/C=C(\C)CC/C=C(\C)CC/C=C(\C)CC/C=C(\C)CC/C=C(\C)CC/C=C(\C)CC/C=C(\C)CC/C=C(\C)CCC=C(C)C)=C(C)C1=O [CoQ10, coenzyme Q10]
- Activities of the CoQ10-dependent enzymes in inflamed dog gingiva [1]: increase
- CoQ10 levels in inflamed dog gingiva [1]: increase
- Effectiveness of chloroquin (Plasmodium berghei): potentiated
- Parasitemia in the red blood cells (Plasmodium berghei): reduced
- Survival time (Plasmodium berghei): prolonged
- Survivors (Plasmodium berghei): increased
- Change of spirochetes (spirochetes; 22 patients, 100 mg orally for two months, p<0.02): decreased; also recorded: significant reduction
- Spirochetes score, 2 Months (spirochetes; [10]): 3 (8×) and 0 (7×) and 4 and 1 (3×) and 6 (2×) and 2
- Change of plaque index ([2]; 22 patients, 100 mg orally for two months): did not change; also recorded: no change
- Plaque Index, 2 Months [2, 11]: 0.0 (5×) and 0.6 (3×) and 0.3 (2×) and 0.2 (4×) and 0.1 (4×) and 0.4 (3×) and 2.0
- Plaque Index, 2 Months, Mean ([2]; mean of 22 patients, S.D. 0.4, before 0.3, not significant, 100 mg/day orally): 0.3 +
- Change of gingival index [3, 12]: decreased
- Gingival Index, 2 Months [3, 11]: 0.5 (3×) and 0.7 (3×) and 0.1 (2×) and 0.2 (3×) and 0.3 (3×) and 1.0 (2×) and 1.4 (2×) and 1.1 and 1.3 and 0.4 and 0.8
- Gingival Index, 2 Months, Mean ([3]; mean of 22 patients, S.D. 0.4, before 0.9, p <0.001, 100 mg/day orally): 0.6 +
- Change of T4/T8 ratio (T4/T8 lymphocytes; [13]): significantly increased
- T4/T8 Ratio, 2 months, Mean + S.D. (T4/T8 lymphocytes; 22 patients, before 2.9 + 1.0, p <0.001): 3.4 + 1.3
- T4/T8 Ratio, 2 months (T4/T8 lymphocytes; [14]): 2.3 and 3.1 and 2.8 (2×) and 4.9 and 3.5 and 4.0 and 1.9 and 2.7 and 7.1 and 3.7 and 2.0 (2×) and 6.2 and 2.9 and 3.2 (2×) and 3.9 and 3.4 and 2.4 and 3.6 and 3.8
- Patients with evident increase of T4/T8 ratio (T4/T8 lymphocytes; out of 22): 17 patients
- Host defense mechanisms [4]: enhanced
- Change of pocket depth [5, 13]: decreased
- Pocket Depth, 2 Months [5, 11]: 2.3 mm (3×) and 2.7 mm (2×) and 1.9 mm and 2.4 mm and 2.6 mm (3×) and 2.9 mm (2×) and 2.2 mm and 1.8 mm and 3.6 mm and 3.4 mm and 2.8 mm (2×) and 2.5 mm and 3.0 mm and 4.5 mm and 3.7 mm
- Pocket Depth, 2 Months, Mean ([5]; mean of 22 patients, S.D. 0.6, before 3.0, p <0.001, 100 mg/day orally): 2.8 + mm
- Total subgingival microorganism score, 2 Months ([6]; individual patients, motile rods plus spirochetes scores, 100 mg/day orally): 6 (6×) and 3 (4×) and 0 (4×) and 8 (3×) and 1 (2×) and 2 and 5 and 7
- Patients in whom all motile microorganisms in the gingiva disappeared ([6]; of 22 patients, 100 mg orally for two months): 4/22 and four
- Oxygen utilization in inflamed human gingiva [7]: increase
- Change of blood level of CoQ10 (Blood CoQ10 level; [13]): increased in all of the patients
- CoQ10 level, 2 months, Mean + S.D. (Blood CoQ10 level; 22 patients, before 0.82 + 0.19, p <0.001): 1.75 + 0.37 ug/ml
- CoQ10 level, 2 months (Blood CoQ10 level; [14]): 1.60 µg/mL and 1.94 µg/mL and 1.59 µg/mL and 2.29 µg/mL and 2.39 µg/mL and 1.16 µg/mL and 1.99 µg/mL and 1.44 µg/mL and 2.37 µg/mL and 1.72 µg/mL and 2.22 µg/mL and 1.30 µg/mL and 2.10 µg/mL and 1.88 µg/mL and 1.65 µg/mL and 1.75 µg/mL and 1.74 µg/mL and 1.90 µg/mL and 1.55 µg/mL and 1.57 µg/mL and 1.26 µg/mL and 1.17 µg/mL
- Number of survivors ([8]; dibenzpyrene tumor model, mice): increase
- Percentage of mice with tumors ([8]; mice susceptible to dibenzpyrene-induced tumors): reduction
- Tumor size or number ([8]; mice that developed tumors): reduction
- Change of motile rods (motile rods; [12]): decreased; also recorded: significant reduction
- Motile Rods score, 2 Months (motile rods; [10]): 3 (5×) and 0 (7×) and 4 (2×) and 1 (3×) and 2 (3×) and 6 and 5
- Gingival inflammation ([9]; earlier clinical trials (refs 2,3,5)): improvement
- Periodontal pocket depth ([9]; earlier clinical trials (refs 2-5)): improvement
- Tooth mobility ([9]; earlier clinical trials (refs 3-5)): improvement
